The source of these data is ChEMBL document CHEMBL4477252, “Optimization of microtubule affinity regulating kinase (MARK) inhibitors with improved physical properties” (Bioorg Med Chem Lett, 2016).

As usually defined, the IC50 is the concentration that inhibits the measured activity by half. A word on the clearance: it is the volume of plasma or blood freed of the substance per unit of time. Read a low clearance as a low capacity for elimination.

In series [1] the target is Cyclin-dependent kinase 5/CDK5 activator 1 (Homo sapiens, UniProt Q00535). Put plainly: Inhibition of full-length recombinant human GST and His-tagged CDK5/P25 expressed in baculovirus expression system by Z'-LYTE assay.
Cyclin-dependent kinase 5/CDK5 activator 1, sequence (Q00535 whole entry, the tested form may be a part): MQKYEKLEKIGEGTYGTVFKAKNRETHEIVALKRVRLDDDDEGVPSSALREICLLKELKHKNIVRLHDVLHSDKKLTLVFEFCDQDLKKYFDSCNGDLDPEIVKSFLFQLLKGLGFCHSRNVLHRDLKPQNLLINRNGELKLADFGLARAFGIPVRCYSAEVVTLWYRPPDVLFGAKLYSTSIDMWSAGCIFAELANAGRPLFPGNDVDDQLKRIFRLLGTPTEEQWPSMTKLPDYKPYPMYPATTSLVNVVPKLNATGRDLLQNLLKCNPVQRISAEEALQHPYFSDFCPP
Cyclin-dependent kinase 5/CDK5 activator 1, sequence (Q15078 whole entry, further chain, the tested form may be a part): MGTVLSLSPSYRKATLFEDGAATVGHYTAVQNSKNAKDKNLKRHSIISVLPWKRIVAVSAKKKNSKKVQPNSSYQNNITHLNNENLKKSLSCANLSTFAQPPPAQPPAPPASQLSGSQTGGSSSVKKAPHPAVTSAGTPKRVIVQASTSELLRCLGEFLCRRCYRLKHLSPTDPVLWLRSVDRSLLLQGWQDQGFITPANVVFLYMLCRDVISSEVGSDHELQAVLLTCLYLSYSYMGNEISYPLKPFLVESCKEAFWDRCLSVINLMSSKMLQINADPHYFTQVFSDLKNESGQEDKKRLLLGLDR
The target in series [2] is cAMP-dependent protein kinase catalytic subunit alpha (Homo sapiens, UniProt P17612). Put plainly: Inhibition of recombinant human His-tagged PRKACA catalytic domain expressed in Escherichia coli by Z'-LYTE assay.
The target of series [3] is Glycogen synthase kinase-3 alpha (Homo sapiens, UniProt P49840). In words: Inhibition of full-length human GST-tagged GSK3A expressed in baculovirus expression system by Z'-LYTE assay.
Series [4] addresses Casein kinase II subunit alpha (Homo sapiens, UniProt P68400). Put plainly: Inhibition of full-length recombinant human His-tagged CSNK2A1 expressed in baculovirus expression system by Z'-LYTE assay.
Series [5] in a line: Clearance in Sprague-Dawley rat at 1 mL/kg, iv administered through catheter measured after 24 hrs by LC-MS/MS analysis. It counts as ADME, organism-based. The conditions noted are these: in vivo.
For series [6], the target named is Protein kinase C theta type (Homo sapiens, UniProt Q04759). In words: Inhibition of full-length recombinant human His-tagged PRKCQ expressed in baculovirus expression system by Z'-LYTE assay.
Series [7] concerns the target T1, MAP/microtubule affinity-regulating kinase 4 (Mus musculus, UniProt Q8CIP4).
T1 sequence (Q8CIP4 whole entry): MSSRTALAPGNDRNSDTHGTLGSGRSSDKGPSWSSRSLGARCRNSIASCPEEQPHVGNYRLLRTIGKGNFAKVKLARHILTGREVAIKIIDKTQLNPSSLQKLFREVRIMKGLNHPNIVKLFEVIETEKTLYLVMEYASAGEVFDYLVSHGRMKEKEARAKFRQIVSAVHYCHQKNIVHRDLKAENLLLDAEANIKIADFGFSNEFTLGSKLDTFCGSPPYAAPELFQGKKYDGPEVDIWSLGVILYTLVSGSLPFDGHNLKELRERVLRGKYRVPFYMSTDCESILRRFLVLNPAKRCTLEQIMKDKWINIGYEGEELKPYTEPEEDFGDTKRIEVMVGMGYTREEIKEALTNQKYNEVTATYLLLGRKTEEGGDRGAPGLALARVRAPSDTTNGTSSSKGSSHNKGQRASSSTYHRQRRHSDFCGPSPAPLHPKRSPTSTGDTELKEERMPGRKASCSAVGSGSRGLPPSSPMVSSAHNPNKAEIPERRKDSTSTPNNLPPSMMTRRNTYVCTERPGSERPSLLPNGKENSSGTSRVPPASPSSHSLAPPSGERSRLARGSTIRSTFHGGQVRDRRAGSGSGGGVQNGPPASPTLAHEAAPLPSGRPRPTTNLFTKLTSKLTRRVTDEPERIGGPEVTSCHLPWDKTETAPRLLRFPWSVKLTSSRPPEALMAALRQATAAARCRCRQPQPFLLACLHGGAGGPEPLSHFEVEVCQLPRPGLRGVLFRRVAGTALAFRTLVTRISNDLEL
In words: Inhibition of MARK4 in mouse cortical neurons assessed as inhibition of okadaic acid-induced tau phosphorylation at S262 residue preincubated for 15 mins followed okadaic acid challenge for 1.5 hrs by immunostaining method.

For series [8], the target named is T2, Serine/threonine-protein kinase Chk1 (Homo sapiens, UniProt O14757).
T2 sequence (O14757 whole entry): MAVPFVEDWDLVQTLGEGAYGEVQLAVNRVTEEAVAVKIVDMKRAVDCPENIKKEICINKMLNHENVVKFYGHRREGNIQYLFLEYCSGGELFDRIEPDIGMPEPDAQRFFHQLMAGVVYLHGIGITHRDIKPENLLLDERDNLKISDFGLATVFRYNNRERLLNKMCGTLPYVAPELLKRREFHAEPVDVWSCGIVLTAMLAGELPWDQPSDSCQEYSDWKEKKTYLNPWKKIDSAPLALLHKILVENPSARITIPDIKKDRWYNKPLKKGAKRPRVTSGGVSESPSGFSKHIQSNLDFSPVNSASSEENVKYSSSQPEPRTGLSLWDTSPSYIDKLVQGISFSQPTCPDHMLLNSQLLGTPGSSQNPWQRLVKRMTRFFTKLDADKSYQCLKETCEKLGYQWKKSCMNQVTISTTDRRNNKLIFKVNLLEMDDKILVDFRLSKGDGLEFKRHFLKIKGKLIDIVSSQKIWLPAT
In words: Inhibition of full-length recombinant human His-tagged CHEK1 expressed in baculovirus expression system by Z'-LYTE assay.

The target in series [9] is Serine/threonine-protein kinase Nek4 (Homo sapiens, UniProt P51957). In words: Inhibition of full-length recombinant human GST-tagged NEK4 expressed in baculovirus expression system by Z'-LYTE assay.
The target of series [10] is T3, Tyrosine-protein kinase ITK/TSK (Homo sapiens, UniProt Q08881).
T3 sequence (Q08881 whole entry): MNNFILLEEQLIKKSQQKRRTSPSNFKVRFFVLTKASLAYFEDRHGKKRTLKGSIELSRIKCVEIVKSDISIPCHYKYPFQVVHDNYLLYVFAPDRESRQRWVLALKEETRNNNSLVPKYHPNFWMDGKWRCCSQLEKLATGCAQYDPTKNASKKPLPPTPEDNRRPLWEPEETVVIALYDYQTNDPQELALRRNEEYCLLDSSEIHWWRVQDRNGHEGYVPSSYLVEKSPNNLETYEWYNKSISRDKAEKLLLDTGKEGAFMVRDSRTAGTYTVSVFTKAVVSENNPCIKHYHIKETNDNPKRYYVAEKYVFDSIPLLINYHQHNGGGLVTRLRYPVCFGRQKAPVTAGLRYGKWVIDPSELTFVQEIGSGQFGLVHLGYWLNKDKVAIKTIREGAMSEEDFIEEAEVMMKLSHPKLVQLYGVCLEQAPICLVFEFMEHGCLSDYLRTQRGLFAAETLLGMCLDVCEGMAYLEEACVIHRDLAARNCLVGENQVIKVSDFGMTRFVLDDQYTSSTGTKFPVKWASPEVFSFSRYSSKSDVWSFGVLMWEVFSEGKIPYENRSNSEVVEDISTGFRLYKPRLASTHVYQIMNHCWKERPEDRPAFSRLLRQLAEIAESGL
In words: Inhibition of full-length recombinant human GST-tagged ITK expressed in baculovirus expression system by Z'-LYTE assay.

Series [11] concerns the target Serine/threonine-protein kinase B-raf (Homo sapiens, UniProt P15056). Put plainly: Inhibition of full-length recombinant human GST-tagged BRAF expressed in baculovirus expression system by Z'-LYTE assay.
The target of another series is Misshapen-like kinase 1 (Homo sapiens, UniProt Q8N4C8). Put plainly: Inhibition of recombinant human His-tagged MINK1 catalytic domain expressed in baculovirus expression system by Z'-LYTE assay.
Misshapen-like kinase 1, sequence (Q8N4C8 whole entry, the tested form may be a part): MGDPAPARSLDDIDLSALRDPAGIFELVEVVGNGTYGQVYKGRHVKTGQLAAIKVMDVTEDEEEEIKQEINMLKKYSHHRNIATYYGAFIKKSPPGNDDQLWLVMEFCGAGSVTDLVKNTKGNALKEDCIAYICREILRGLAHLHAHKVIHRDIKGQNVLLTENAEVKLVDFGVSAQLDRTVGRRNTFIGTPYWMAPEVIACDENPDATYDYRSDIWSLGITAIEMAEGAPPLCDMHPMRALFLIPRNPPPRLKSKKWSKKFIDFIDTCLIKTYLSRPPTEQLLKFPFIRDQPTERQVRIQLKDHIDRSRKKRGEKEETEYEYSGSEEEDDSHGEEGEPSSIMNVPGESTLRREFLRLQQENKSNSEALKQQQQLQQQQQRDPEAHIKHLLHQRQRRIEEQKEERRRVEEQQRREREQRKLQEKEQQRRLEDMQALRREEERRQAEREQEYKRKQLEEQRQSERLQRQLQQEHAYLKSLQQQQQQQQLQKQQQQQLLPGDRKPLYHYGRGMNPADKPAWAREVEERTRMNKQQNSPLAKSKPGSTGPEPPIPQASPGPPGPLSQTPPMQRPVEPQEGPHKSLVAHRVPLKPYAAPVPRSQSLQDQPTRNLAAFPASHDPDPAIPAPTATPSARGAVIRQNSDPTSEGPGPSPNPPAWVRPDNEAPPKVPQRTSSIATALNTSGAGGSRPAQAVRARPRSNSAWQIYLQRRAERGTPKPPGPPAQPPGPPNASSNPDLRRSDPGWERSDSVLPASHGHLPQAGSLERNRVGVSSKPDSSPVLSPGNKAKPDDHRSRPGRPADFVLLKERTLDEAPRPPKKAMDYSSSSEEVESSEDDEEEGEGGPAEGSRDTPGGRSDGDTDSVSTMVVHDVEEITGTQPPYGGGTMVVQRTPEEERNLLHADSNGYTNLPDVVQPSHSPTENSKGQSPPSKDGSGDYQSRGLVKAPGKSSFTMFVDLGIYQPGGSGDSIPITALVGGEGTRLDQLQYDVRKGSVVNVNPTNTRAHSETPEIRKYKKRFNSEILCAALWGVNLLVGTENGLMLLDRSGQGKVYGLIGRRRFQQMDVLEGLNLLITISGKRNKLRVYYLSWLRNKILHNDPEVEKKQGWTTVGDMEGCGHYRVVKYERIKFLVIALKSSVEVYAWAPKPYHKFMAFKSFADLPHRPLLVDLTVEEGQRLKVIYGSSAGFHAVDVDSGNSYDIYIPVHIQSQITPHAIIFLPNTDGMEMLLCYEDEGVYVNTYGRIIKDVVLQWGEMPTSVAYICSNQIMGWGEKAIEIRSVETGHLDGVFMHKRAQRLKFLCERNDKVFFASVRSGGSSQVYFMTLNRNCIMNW
Series [12] concerns the target Tyrosine-protein kinase JAK1 (Homo sapiens, UniProt P23458). In words: Inhibition of recombinant human GST-tagged cytoplasmic JAK1 (866 to 1154 residues) catalytic domain expressed in baculovirus expression system by Z'-LYTE assay.
Series [13] addresses Protein-tyrosine kinase 6 (Homo sapiens, UniProt Q13882). In words: Inhibition of full-length recombinant human His-tagged PTK6 expressed in baculovirus expression system by Z'-LYTE assay.
Series [14] concerns the target Casein kinase I isoform alpha (Homo sapiens, UniProt P48729). Put plainly: Inhibition of recombinant human GST-tagged cytoplasmic CSNK1A1 expressed in baculovirus expression system by Z'-LYTE assay.

Serine/threonine-protein kinase B-raf, sequence (P15056 whole entry, the tested form may be a part): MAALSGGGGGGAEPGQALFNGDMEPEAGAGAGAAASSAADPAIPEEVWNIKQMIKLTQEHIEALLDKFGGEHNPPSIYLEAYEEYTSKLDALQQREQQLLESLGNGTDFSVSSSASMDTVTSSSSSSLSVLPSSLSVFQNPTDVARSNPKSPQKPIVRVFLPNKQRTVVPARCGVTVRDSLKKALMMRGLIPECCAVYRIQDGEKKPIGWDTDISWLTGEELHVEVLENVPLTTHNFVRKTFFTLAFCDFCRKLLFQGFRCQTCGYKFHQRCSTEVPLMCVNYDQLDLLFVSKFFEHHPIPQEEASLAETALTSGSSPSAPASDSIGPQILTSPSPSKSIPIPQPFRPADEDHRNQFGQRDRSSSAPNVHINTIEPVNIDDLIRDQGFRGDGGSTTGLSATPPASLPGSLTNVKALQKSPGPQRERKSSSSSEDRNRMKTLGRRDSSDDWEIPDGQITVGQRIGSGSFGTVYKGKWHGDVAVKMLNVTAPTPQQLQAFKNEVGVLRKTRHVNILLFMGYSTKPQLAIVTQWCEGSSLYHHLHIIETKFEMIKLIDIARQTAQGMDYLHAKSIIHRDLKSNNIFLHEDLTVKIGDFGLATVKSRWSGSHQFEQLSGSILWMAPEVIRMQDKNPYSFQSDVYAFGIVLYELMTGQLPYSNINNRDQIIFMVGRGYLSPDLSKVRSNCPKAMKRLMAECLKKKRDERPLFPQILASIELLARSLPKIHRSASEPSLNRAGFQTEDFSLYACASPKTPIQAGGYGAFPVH
Protein-tyrosine kinase 6, sequence (Q13882 whole entry, canonical isoform): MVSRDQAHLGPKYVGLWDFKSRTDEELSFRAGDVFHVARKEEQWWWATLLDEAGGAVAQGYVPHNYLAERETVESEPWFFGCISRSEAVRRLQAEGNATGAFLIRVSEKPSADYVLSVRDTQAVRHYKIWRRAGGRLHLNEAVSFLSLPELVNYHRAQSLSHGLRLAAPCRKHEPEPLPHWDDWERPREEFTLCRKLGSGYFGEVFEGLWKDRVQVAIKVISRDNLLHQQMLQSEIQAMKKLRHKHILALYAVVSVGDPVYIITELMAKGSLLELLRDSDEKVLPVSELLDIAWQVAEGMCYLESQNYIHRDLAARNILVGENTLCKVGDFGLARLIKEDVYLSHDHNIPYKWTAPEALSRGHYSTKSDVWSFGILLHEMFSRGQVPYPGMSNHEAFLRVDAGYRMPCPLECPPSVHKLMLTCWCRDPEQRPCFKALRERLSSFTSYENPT
Casein kinase I isoform alpha, sequence (P48729 whole entry, canonical isoform): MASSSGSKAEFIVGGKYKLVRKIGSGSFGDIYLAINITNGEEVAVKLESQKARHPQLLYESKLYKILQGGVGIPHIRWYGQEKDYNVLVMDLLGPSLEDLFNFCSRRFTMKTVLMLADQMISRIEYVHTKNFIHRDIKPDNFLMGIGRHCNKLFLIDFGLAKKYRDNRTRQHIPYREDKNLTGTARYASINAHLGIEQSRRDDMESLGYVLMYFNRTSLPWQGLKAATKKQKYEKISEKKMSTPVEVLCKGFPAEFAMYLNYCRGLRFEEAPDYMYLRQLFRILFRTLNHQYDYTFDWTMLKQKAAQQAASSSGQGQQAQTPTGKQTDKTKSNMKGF
Tyrosine-protein kinase JAK1, sequence (P23458 whole entry, the tested form may be a part): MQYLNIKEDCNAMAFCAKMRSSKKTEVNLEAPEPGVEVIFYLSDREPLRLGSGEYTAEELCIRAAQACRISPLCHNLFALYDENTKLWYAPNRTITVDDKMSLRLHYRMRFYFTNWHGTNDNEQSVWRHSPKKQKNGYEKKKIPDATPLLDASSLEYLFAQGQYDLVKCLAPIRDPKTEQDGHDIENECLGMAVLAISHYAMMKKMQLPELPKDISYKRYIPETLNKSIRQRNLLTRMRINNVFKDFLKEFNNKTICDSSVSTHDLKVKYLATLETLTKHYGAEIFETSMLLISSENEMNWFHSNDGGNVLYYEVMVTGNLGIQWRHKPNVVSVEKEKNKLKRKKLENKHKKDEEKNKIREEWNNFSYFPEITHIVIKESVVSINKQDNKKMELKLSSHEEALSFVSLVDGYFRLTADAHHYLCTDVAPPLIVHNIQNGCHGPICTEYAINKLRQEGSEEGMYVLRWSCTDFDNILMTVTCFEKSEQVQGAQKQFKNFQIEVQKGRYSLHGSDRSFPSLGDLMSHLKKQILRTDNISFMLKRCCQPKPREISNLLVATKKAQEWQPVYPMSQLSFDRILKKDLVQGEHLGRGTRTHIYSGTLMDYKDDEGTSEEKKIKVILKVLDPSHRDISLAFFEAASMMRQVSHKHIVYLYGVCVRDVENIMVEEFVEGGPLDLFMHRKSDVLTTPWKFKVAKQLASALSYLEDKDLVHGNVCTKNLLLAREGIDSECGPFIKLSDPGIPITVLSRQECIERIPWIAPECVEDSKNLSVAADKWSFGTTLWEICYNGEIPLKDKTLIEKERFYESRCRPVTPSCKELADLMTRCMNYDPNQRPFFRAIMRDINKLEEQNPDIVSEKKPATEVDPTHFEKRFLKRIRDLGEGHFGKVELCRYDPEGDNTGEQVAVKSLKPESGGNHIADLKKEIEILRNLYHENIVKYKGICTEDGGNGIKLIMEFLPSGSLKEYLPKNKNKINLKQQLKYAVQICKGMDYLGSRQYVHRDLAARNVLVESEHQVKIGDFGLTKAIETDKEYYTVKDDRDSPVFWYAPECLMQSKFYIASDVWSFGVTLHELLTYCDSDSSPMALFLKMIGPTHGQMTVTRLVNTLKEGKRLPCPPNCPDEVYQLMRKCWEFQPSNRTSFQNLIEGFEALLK
Casein kinase II subunit alpha, sequence (P68400 whole entry): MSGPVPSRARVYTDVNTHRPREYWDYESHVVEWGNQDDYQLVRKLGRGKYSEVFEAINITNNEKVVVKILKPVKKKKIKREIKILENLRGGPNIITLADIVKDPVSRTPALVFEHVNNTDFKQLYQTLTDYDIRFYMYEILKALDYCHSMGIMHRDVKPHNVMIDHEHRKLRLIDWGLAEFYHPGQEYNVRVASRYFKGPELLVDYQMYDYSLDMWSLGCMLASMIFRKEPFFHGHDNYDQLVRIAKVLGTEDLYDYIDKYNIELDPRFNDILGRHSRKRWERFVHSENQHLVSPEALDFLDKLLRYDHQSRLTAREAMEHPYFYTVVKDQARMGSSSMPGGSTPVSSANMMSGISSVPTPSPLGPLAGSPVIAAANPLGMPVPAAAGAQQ

As to `Cn1cc(-c2cnc3c(-c4csc(C(=O)NCC(F)(F)F)c4)cnn3c2)cn1`, the IC50 was below 10 nM in [1]; above 100000 nM in series [2]; 130 nM in series [3]; above 100000 nM in series [4]; above 100000 nM in [6]; 60 nM in series [7]. For the same compound, the IC50 in [8] was 190 nM; in [9] it was 240 nM; in series [10], 94 nM; in series [11], 1500 nM; on Misshapen-like kinase 1 it was 22 nM; in series [12], 4200 nM. Moreover, the IC50 was above 100000 nM in [13] and 630 nM in series [14]. Also, the clearance in series [5] was found to be 7.4 mL/min/kg.

As for `Cc1sc(C(=O)N[C@@H]2[C@H](N)CCCC2(F)F)cc1-c1cnn2cc(Cl)cnc12`, the concentration for half-maximal inhibition (IC50) in [1] is 61 nM; in series [2] it was 3000 nM; in [3] it was 110 nM; in series [4], above 100000 nM; in series [6] it was 8700 nM; in [7], 280 nM. Besides, the concentration for half-maximal inhibition (IC50) turned out to be 200 nM in series [8]; 480 nM in series [9]; 4200 nM in series [10]; 1100 nM in series [11]; 140 nM on Misshapen-like kinase 1; 4300 nM in series [12]. Moreover, the IC50 in series [13] is above 100000 nM; in [14] it was 18000 nM. The clearance in series [5] turned out to be 19 mL/min/kg.

On to `O=C(NCC(F)(F)F)c1cc(-c2cnn3cc(-c4ccc(OCCN5CCCCC5)cc4)cnc23)cs1`, for which the IC50 in [1] was 19 nM; in series [2], 15000 nM; in series [3], 360 nM; in [4], 8300 nM; in [6], 6600 nM; in series [7], 50 nM. The IC50 in series [8] amounted to 57 nM; in series [9], 160 nM; in series [10], 26 nM; in [11] it was 550 nM; at Misshapen-like kinase 1, 13 nM; in [12], 2300 nM. Moreover, the results for the IC50 in [13] and in series [14] were 1700 nM and 230 nM, respectively. In addition, the clearance in [5] came to 32 mL/min/kg.

On to `Cn1cc(-c2cnc3c(-c4csc(C(=O)N[C@@H]5CCCC[C@@H]5N)c4)cnn3c2)cn1` (racemic), for which the IC50 in series [1] was 4.4 nM; in series [2], 27 nM; in series [3] it was 42 nM; in series [4] it was above 10000 nM; in series [6], 270 nM; in series [7], 2 nM. In addition, the IC50 is 2.2 nM in series [8]; 48 nM in series [9]; 26 nM in [10]; 19 nM in series [11]; 6 nM at Misshapen-like kinase 1; 220 nM in series [12]. The IC50 was determined as 390 nM in [13] and 2100 nM in series [14].
